Data: US6495131B1, “Interleukin-3 gene therapy for cancer” (priority 1998, dated 2002)

system: ROS-1 osteosarcoma; test: Tumor growth of ROS-1 osteosarcoma in hindlimb after ILP or intra-tumoral injection; assay type: in vivo; details: ROS-1, ILP 15 minutes, 1.10^9 iu vector plus 50 μg TNFα, 40 μg melphalan or 200 μg doxorubicin per rat
Protocol: The rapidly growing ROS-1 osteosarcoma originated spontaneously in the tibia of a Wag/Rij rat (Barendsen et al. (1987)). The ROS-1 was implanted subcutaneously in the flank of donor Wag/Rij rats and passaged serially. The ROS-1 has a tumor doubling time of 5 days.
Fragments of the BN175 or ROS-1 (osteo)sarcoma were subcutaneously implanted into the right hindlimb of the experimental animals just above the ankle. The tumor size was measured regularly by caliper measurement in two dimensions. When the tumor reached a volume of 180-524 mm^3 (diameter between 7 and 10 mm) an isolated limb perfusion (ILP) with the recombinant adenoviral vector was performed. As a control, tumor bearing rats underwent ILP without the addition of said recombinant adenoviral vectors (termed sham ILP). An other group of tumor bearing rats underwent a direct intra-tumor injection with said recombinant adenoviral vector. The tumor volume was between 180-524 mm^3). After ILP or direct intra-tumor injection the tumor size was measured every (mon-fri)day.
Surgical procedures were performed under Hypnorm anaesthesia. […] After an incision parallel to the inguinal ligament the femoral and vein were approached and cannulated with silastic tubing (0.30 mm ID, 0.64 mm OD; 0.64 mm, 1.19 OD, respectively, Degania Silicone, Degania Bet, Israel). Collaterals were temporarily occluded by the application of a tourniquet around the groin, which was fixed to the inguinal ligament. An oxygenation reservoir and a roller pump (Masterflex) were included in the vascularly isolated circuit, which was, initially, perfused with haemaccel (Behring Pharma, Amsterdam, The Netherlands) for 3 minutes at a flow speed of 2 ml/min to wash out the blood. After the first wash out step, recirculation was performed with recombinant adenoviruses (50 μl-1 ml, containing approximately 10^9 infectious units (i.u.)) dissolved in 2.5-3.5 ml Haemaccel at the same flow rate for a time period ranging from 5 to 30 minutes. Followed by a second perfusion step of 5 minutes to wash out the non-bound virus with Haemaccel. […]

| Compound | effect of addition to the IG.Ad.CMV.rIL-3 perfusion on the antitumor response |
| --- | --- |
| COc1cccc2c1C(=O)c1c(O)c3c(c(O)c1C2=O)C[C@@](O)(C(=O)CO)C[C@@H]3O[C@H]1C[C@H](N)[C@H](O)[C@H](C)O1 [doxorubicin] | does not influence the antitumor response |
| N[C@@H](Cc1ccc(N(CCCl)CCCl)cc1)C(=O)O [melphalan] | does not influence the antitumor response |
| TNFα | does not influence the antitumor response |
